The supplement of paper PMC10307832

Assays:
Assay in all cases: relative viability (nuclei count vs DMSO), 5 days (fraction); higher = more cells survive
AT-7519 + Crizotinib = compound: O=C(NC1CCNCC1)c1n[nH]cc1NC(=O)c1c(Cl)cccc1Cl [AT-7519] + C[C@@H](Oc1cc(-c2cnn(C3CCNCC3)c2)cnc1N)c1c(Cl)ccc(F)c1Cl [Crizotinib] (partner 1 µM)
How it was run: (§1)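 Relative viability divides the nuclei count in treated wells by that in vehicle wells. Lung cancer cell lines were seeded in 1536-well plates, dosed by pin tool the next day, and fixed and stained after 5 days in one step with final 0.05% Triton X-100, 1% formaldehyde and 1 ug/ml Hoechst. Dosing was a single drug or a fixed anchor-drug dose plus five library-drug doses (not always all listed) in √10 steps, and values are medians of duplicate plates imaged at 4×.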

AT-7519 + Olaparib = compound: O=C(NC1CCNCC1)c1n[nH]cc1NC(=O)c1c(Cl)cccc1Cl [AT-7519] + O=C(c1cc(Cc2n[nH]c(=O)c3ccccc23)ccc1F)N1CCN(C(=O)C2CC2)CC1 [Olaparib] (partner 8 µM)
How it was run: as §1

[1] = compound: C1=CC2=C(C=C(C(=C2N=C1)O)N=NC3=CC4=C(C=C3)C=C(C=C4)S(=O)(=O)O)S(=O)(=O)O + CS(=O)(=O)CCNCc1ccc(-c2ccc3ncnc(Nc4ccc(OCc5cccc(F)c5)c(Cl)c4)c3c2)o1 [Lapatinib] (partner 2 µM)
How it was run: as §1

[2] = compound: C1=CC2=C(C=C(C(=C2N=C1)O)N=NC3=CC4=C(C=C3)C=C(C=C4)S(=O)(=O)O)S(=O)(=O)O + Cc1nc(Nc2ncc(C(=O)Nc3c(C)cccc3Cl)s2)cc(N2CCN(CCO)CC2)n1 [Dasatinib] (partner 0.075 µM)
How it was run: as §1

Cell Line	relative viability (AT-7519 + Crizotinib; first compound 0.01 µM)	relative viability (AT-7519 + Crizotinib; first compound 0.03162 µM)	relative viability (AT-7519 + Crizotinib; first compound 0.3162 µM)	relative viability (AT-7519 + Crizotinib; first compound 1 µM)	relative viability (AT-7519 + Olaparib; first compound 0.01 µM)	relative viability (AT-7519 + Olaparib; first compound 0.03162 µM)	relative viability (AT-7519 + Olaparib; first compound 0.3162 µM)	relative viability (AT-7519 + Olaparib; first compound 1 µM)	relative viability ([1]; first compound 0.08 µM)	relative viability ([1]; first compound 0.253 µM)	relative viability ([1]; first compound 0.8 µM)	relative viability ([1]; first compound 2.53 µM)	relative viability ([1]; first compound 8 µM)	relative viability ([2]; first compound 0.08 µM)	relative viability ([2]; first compound 0.253 µM)	relative viability ([2]; first compound 0.8 µM)	relative viability ([2]; first compound 2.53 µM)	relative viability ([2]; first compound 8 µM)
201T	1.04	1.1	1.03	1.09	0.895	0.846	0.917	0.666	0.975	1.04	1.01	0.997	1.02	0.627	0.56	0.584	0.619	0.677
A549	0.635	0.867	0.55	0.25	0.312	0.309	0.315	0.368	1.08	0.991	0.972	0.947	1.01					
A-427	0.931	0.823	0.964	0.576	0.806	0.745	0.713	0.382	1.16	0.825	0.974	1.05	1.1	0.68	0.634	0.64	0.775	0.751
ABC-1	1.06	1.35	0.591	0.183	1.02	0.646	0.608	0.454	1.25	0.989	1.08	1.18	1.02	0.568			0.713	0.421
BEN	0.897	0.754	0.985	0.83	1.03	1.1	1.03	0.809	0.956	0.623	0.669	0.766	0.654	0.25	0.31	0.296	0.347	0.322
CAL-12T	0.562	0.537	0.201	0.16	0.736	0.736	0.539	0.163	0.593	0.58	0.629	0.63	0.663	0.325	0.361	0.383	0.518	0.434
COR-L23	0.639	0.632	0.653	0.132	0.362	0.361	0.264	0.102	1.3	0.971	0.92	1	1.15	0.523	0.477	0.442	0.582	0.576
COR-L 105	0.823	0.784	0.469	0.289	0.71	0.714	0.726	0.564	0.401	0.394	0.378	0.377	0.358	0.307	0.337	0.445	0.348	0.278
Calu-6	0.928	0.855	0.677	0.141	0.622	0.641	0.688	0.262	1.16	1.03	1.01	1.02	1.03					
ChaGo-K-1	1.08	1.12	0.792	0.743	0.379	0.403	0.431	0.403						0.648	0.595	0.599	0.481	0.335
EBC-1	0.198	0.228	0.191	0.153	0.88	0.773	0.664	0.546	0.202	0.242	0.27	0.2	0.238					
EKVX	0.933	0.85	0.699	0.894	0.816	0.758	0.809	0.995	0.215	0.215	0.172	0.208	0.219	0.314	0.648	0.556	0.743	0.633
EMC-BAC-2	0.766	0.744	0.746	0.881	0.508	0.48	0.506	0.56	0.826	0.881	0.877	0.927	0.74	0.324	0.401	0.336	0.36	0.367
EPLC-272H	0.896	0.918	0.809	0.934	0.604	0.591	0.606	0.0569	1	0.947	0.895	1	0.935	0.408	0.313	0.333	0.366	0.418
H3255	0.942	0.838	0.849	0.756	0.581	0.514	0.527	0.451	0.283	0.236	0.255	0.246	0.237	0.346	0.375	0.297	0.34	0.477
HARA	1.03	1.1	0.974	0.786	0.753	0.478	0.482	0.301	0.836	0.611	0.681	0.869	0.778	0.284	0.274	0.274	0.296	0.327
HCC-15	0.864	0.718	0.741	0.502	0.712	0.772	0.73	0.355	0.963	0.841	0.843	0.832	0.888	0.684	0.551	0.609	0.584	0.624
HCC-44	0.773	0.781	0.903	0.778	1.08	1.01	0.937	1.02	1.08	0.975	0.96	1.05	1.09					
HCC-78	0.33	0.324	0.331	0.42	1.01	0.758	0.806	0.666	0.763	0.625	0.702	0.922	0.192	0.404	0.337	0.426	0.352	0.394
HCC-366	0.463	0.668	0.457	0.179	0.409	0.424	0.281	0.164	1.13	0.954	1.03	1.02	1.02	0.765	0.661	0.654	0.649	0.637
HCC-827	0.895	0.945	0.862	0.855	0.635	0.815	0.659	0.54	0.19	0.159	0.185	0.189	0.188	0.306	0.294	0.244	0.261	0.272

Cell Line	relative viability (AT-7519 + Crizotinib; first compound 0.01 µM)	relative viability (AT-7519 + Crizotinib; first compound 0.03162 µM)	relative viability (AT-7519 + Crizotinib; first compound 0.3162 µM)	relative viability (AT-7519 + Crizotinib; first compound 1 µM)	relative viability (AT-7519 + Olaparib; first compound 0.01 µM)	relative viability (AT-7519 + Olaparib; first compound 0.03162 µM)	relative viability (AT-7519 + Olaparib; first compound 0.3162 µM)	relative viability (AT-7519 + Olaparib; first compound 1 µM)	relative viability ([1]; first compound 0.08 µM)	relative viability ([1]; first compound 0.253 µM)	relative viability ([1]; first compound 0.8 µM)	relative viability ([1]; first compound 2.53 µM)	relative viability ([1]; first compound 8 µM)	relative viability ([2]; first compound 0.08 µM)	relative viability ([2]; first compound 0.253 µM)	relative viability ([2]; first compound 0.8 µM)	relative viability ([2]; first compound 2.53 µM)	relative viability ([2]; first compound 8 µM)
HOP-62	0.893	0.966	0.675	0.889	0.558	0.248	0.189	0.373	1.32	0.925	0.972	1.05	0.993	0.69	0.657	0.676	0.588	0.653
IA-LM	1.02	1.03	0.573	0.0695	0.866	0.892	0.834	0.631	0.681	0.718	0.707	0.796	0.793					
LC-2-ad	0.465	0.467	0.499	0.234	0.75	0.726	0.736	0.622	0.982	0.937	0.922	0.954	0.589	0.799	0.593	0.555	0.548	0.687
LCLC-97TM1	0.334	0.254	0.328	0.191	0.284	0.264	0.355	0.294		0.665		0.835	1.04	0.705	0.842	0.691	0.779	0.865
LCLC-103H	1.05	1.08	0.999	1.27	0.763	0.805	0.834	0.833						0.537	0.461	0.505	0.458	0.48
LK-2	0.229	0.235	0.251	0.227	0.815	0.74	0.706	0.593	0.946	0.883	0.839	0.939	0.718	0.357	0.33	0.204	0.33	0.239
LOU-NH91	0.73	0.742	0.766	0.711	0.911	0.899	0.931	0.785	0.868	0.79	0.755	0.781	0.781	0.579	0.585	0.53	0.597	0.508
LU99A	0.579	0.539	0.517	0.357	0.278	0.247	0.228	0.229	0.934	0.974	0.949	0.972	1.14	0.496	0.496	0.474	0.555	0.514
LXF-289	0.838	0.898	0.811	0.816	1.09	1.15	1.02	1.06	0.934	0.889	0.897	0.955	0.903	0.196	0.215	0.205	0.208	0.229
NCI-H23	0.544	0.446	0.543	0.318	0.368	0.265	0.327	0.173	1.31	1.02	1.03	0.984	1.18	0.922	0.877	0.702	0.95	0.927
NCI-H441	0.656	0.905	0.673	0.428	0.524	0.559	0.446	0.204						0.574	0.587	0.568	0.59	0.679
NCI-H522					0.75	0.595	0.664	0.498						0.91	0.92	0.746	0.788	1.03
NCI-H1299	1.03	0.997	0.947	0.31	0.97	1	0.935	1.09	0.959	0.913	0.944	0.956	0.939					
NCI-H1395					0.374	0.471	0.413	0.419	1.14	1.18	1.19	1.01	0.966	0.386	0.433	0.45	0.397	0.43
NCI-H1563	0.857	0.809	1.02	0.702					0.957	1.02	0.916	0.976	1.13	0.455	0.478	0.492	0.397	0.418
NCI-H1648					0.852		0.696	0.49										
NCI-H1703	0.585	0.59	0.508	0.0921	0.454	0.435	0.388	0.175	1.36	0.886	1.06	1.01	1.01					
NCI-H1793					0.849	0.774	0.786	0.546	0.769	1		0.651	0.59	0.372	0.403	0.364	0.367	0.372
NCI-H2342					0.391	0.427	0.454	0.443						0.297	0.307	0.286	0.308	0.348
SW 900					1.06	0.8	0.622	0.371						0.596	0.668	0.619	0.52	0.743
